Assay results from ChEMBL document CHEMBL1136663, “Structure-activity relationships studies of the anti-angiogenic activities of linomide” (Bioorg Med Chem Lett, 2003).
pIC50: −log10 of the molar value.

Tests used:
HUVEC = test: Inhibitory concentration against Human umbilical vein endothelial cell (HUVEC) proliferation; assay type: functional, cell-based
Gallus gallus = organism: Gallus gallus; test: Effective concentration for inhibiting blood vessel formation in the CAM (Chicken chorioallantoic membrane) angiogenesis assay.; assay type: functional
PC-3 = test: Antiproliferative activity against PC-3 prostate cancer cells; assay type: functional, cell-based; conditions: Homo sapiens

| pIC50 (PC-3) | Structure (SMILES) | pIC50 (HUVEC) | ED50 (Gallus gallus) [µg embryo-1] |
| --- | --- | --- | --- |
| < 4.00 | CN(C(=O)c1c(O)nc2ccccc2c1O)c1ccccc1 | 5.18 | 7.5 |
| < 4.00 | O=C(Nc1ccccc1)c1cc2ccccc2nc1O | – | > 100 |
| < 4.00 | Cn1c(=O)c(C(=O)Nc2ccccc2)c(O)c2ccccc21 | 5.14 | 18 |
| < 4.00 | O=C(Nc1ccccc1)c1c(O)nc2ccccc2c1O | 5.40 | 0.87 |

Continued, molecule first:

| Structure (SMILES) | pIC50 (PC-3) | pIC50 (HUVEC) | ED50 (Gallus gallus) [µg embryo-1] |
| --- | --- | --- | --- |
| CN(C(=O)c1cc2ccccc2n(C)c1=O)c1ccccc1 | < 4.00 | – | > 100 |
| CN(C(=O)c1c(O)c2ccccc2n(C)c1=O)c1ccccc1 [ROQUINIMEX] | < 4.00 | 4.86 | 60.1 |
| CN(C)C(=O)c1c(O)c2ccccc2n(C)c1=O | < 4.00 | 4.78 | 8.5 |
